Assay results published in patent US10449184B2, “Pharmaceutical compositions of therapeutically active compounds” (Agios Pharmaceuticals, Inc., priority 2014, dated 2019).
Marks after values point to notes of the source that are not given here.

Assays:
[1] = tested on: advanced hematologic malignancies that harbor an IDH1 mutation (R/R AML); experiment: Phase 1 clinical trial: clinical activity assessed by Investigator using IWG AML and MDS criteria; type: in vivo, human
From the text: Subjects will undergo radiographic evaluations (CT/MRI), and assessment of bone marrow aspirates and biopsies and peripheral blood to assess the extent of disease, at screening, on Day 15, Day 29 and Day 57, and every 56 days thereafter while on study drug treatment, independent of dose delays and/or dose interruptions, and/or at any time when progression of disease is suspected. Two core tumor biopsies will be obtained at screening, at the time of the first assessment of response, and at the time of disease progression within a window of ±3 days around the planned assessment time point. For patients with acute myelogenous leukemia (AML), response to treatment will be determined by the Investigators based on modified International Working Group (IWG) response criteria.
Disease response to treatment will be assessed through the evaluation of bone marrow biopsies and/or aspirates, along with complete blood counts and examination of peripheral blood films. Subjects will have the extent of their disease assessed and recorded at screening, on Days 15, 29, and 57, every 56 days thereafter while on study drug treatment, independent of dose-delays and/or dose interruptions, and/or at any time when progression of disease is suspected. An assessment also will be conducted at the End of Treatment visit for subjects who discontinue the study due to reasons other than disease progression.
Response to treatment as assessed by the site Investigators using modified IWG (for subjects with hematologic malignancies, such as MDS, MDS/MPN or AML). Two-sided 90% confidence intervals on the response rates will be calculated for each dose level and overall. Data will also be summarized by type of malignancy for subjects in the cohort expansion phase. Descriptive statistics will be used to summarize Ki67 levels from tumor biopsies.

[2] = Phase 1 clinical trial: safety, adverse events and patient disposition; type: in vivo, human
From the text: The study includes a dose escalation phase to determine MTD followed by expansion cohorts to further evaluate the safety and tolerability of the MTD. The dose escalation phase will utilize a standard “3+3” design. […] Each dose cohort will plan to enroll a minimum of 3 subjects. The first 3 subjects enrolled in each dosing cohort during the dose escalation phase of the study will initially receive a single dose of study drug on Day −3 (i.e., 3 days prior to the start of daily dosing) and undergo PK/PD assessments over 72 hours to evaluate drug concentrations and 2HG levels. The next dose of study drug will be on Cycle 1 Day 1 (C1D1) at which time daily dosing will begin. The initial dosing regimen will be twice daily (approximately every 12 hours). If warranted based on the emerging data, an alternative dosing schedule (e.g., once daily or three times daily), including administration of the same total daily dose using different dosing schedules in concurrent cohorts, may be explored. If there are multiple subjects in the screening process at the time the third subject within a cohort begins treatment, up to 2 additional subjects may be enrolled with approval of the Medical Monitor. For these additional subjects, the Day −3 through Day 1 PK/PD assessments are optional following discussion with the Medical Monitor. The planned dose escalation scheme is illustrated in Table 1.
Toxicity severity will be graded according to the National Cancer Institute Common Terminology Criteria for Adverse Events (NCI CTCAE) version 4.03. A DLT is defined as follows. Hematologic includes prolonged myelosuppression, defined as persistence of ≥3 Grade neutropenia or thrombocytopenia (by NCI CTCAE, version 4.03, leukemia-specific criteria, i.e., marrow cellularity <5% on Day 28 or later from the start of study drug without evidence of leukemia) at least 42 days after the initiation of Cycle 1 therapy. Leukemia-specific grading should be used for cytopenias (based on percentage decrease from baseline: 50 to 75%=Grade 3, >75%=Grade 4). All AEs that cannot clearly be determined to be unrelated to Compound 1, or a pharmaceutically acceptable salt thereof will be considered relevant to determining DLTs.
AEs, including determination of DLTs, serious adverse events (SAEs), and AEs leading to discontinuation; safety laboratory parameters; physical examination findings; vital signs; 12-lead ECGs; LVEF; and ECOG PS will be monitored during the clinical study. The severity of AEs will be assessed by the NCI CTCAE, Version 4.03.
Adverse events will be summarized by Medical Dictionary for Regulatory Activities (MedDRA) system organ class and preferred term. Separate tabulations will be produced for all treatment-emergent AEs (TEAEs), treatment-related AEs (those considered by the Investigator as at least possibly drug related), SAEs, discontinuations due to AEs, and AEs of at least Grade 3 severity. By-subject listings will be provided for deaths, SAEs, DLTs, and AEs leading to discontinuation of treatment.

[3] = tested on: primary human IDH-mutated blast cells; experiment: intracellular 2HG in primary blast cells ex vivo; type: cell-based; details: 0.5 uM, 1 uM and 5 uM
[4] = tested on: IDH1 mutant R132H xenograft model; experiment: 2HG reduction in IDH1 mutant R132H xenograft model; type: in vivo; details: single dose (50 mg/kg)

Structure (SMILES): N#Cc1ccnc(N2C(=O)CC[C@H]2C(=O)N(c2cncc(F)c2)[C@H](C(=O)NC2CC(F)(F)C2)c2ccccc2Cl)c1 [Compound 1, (S)—N—((S)-1-(2-chlorophenyl)-2-((3,3-difluorocyclobutyl)amino)-2-oxoethyl)-1-(4-cyanopyridin-2-yl)-N-(5-fluoropyridin-3-yl)-5-oxopyrrolidine-2-carboxamide]
- CR (complete response) ([1]; Cohort 1 100 mg BID (n = 4)): 1
- Overall response rate (ORR = CR, Marrow CR and PR) ([1]; Cohort 1 100 mg BID (n = 4)): 1/4
- CR (complete response) ([1]; Cohort 2 300 mg QD (n = 4)): 1
- Overall response rate (ORR = CR, Marrow CR and PR) ([1]; Cohort 2 300 mg QD (n = 4)): 1/4
- PD (progressive disease) ([1]; Cohort 2 300 mg QD (n = 4)): 1
- CR (complete response) ([1]; Cohort 3 500 mg QD (n = 4)): 1
- Marrow CR (≤5% blasts in BM; no hematological recovery) ([1]; Cohort 3 500 mg QD (n = 4)): 2
- Overall response rate (ORR = CR, Marrow CR and PR) ([1]; Cohort 3 500 mg QD (n = 4)): 3/4
- CR (complete response) ([1]; Cohort 4 800 mg QD (n = 2)): 1
- Overall response rate (ORR = CR, Marrow CR and PR) ([1]; Cohort 4 800 mg QD (n = 2)): 2/2
- PR (partial response) ([1]; Cohort 4 800 mg QD (n = 2)): 1
- CR (complete response) ([1]; Total N = 14): 4
- Marrow CR (≤5% blasts in BM; no hematological recovery) ([1]; Total N = 14): 2
- Overall response rate (ORR = CR, Marrow CR and PR) ([1]; Total N = 14): 7/14
- PD (progressive disease) ([1]; Total N = 14): 1
- PR (partial response) ([1]; Total N = 14): 1
- blasts in bone marrow ([1]; patient refractory to 7+3, after 2 weeks of therapy): < 5%
- response of single patient ([1]; patient, after 2 weeks of therapy, maintained at D28): met the criteria for a full CR
- subjects discontinued study due to an intracranial bleed (SAE, resulted in death) ([2]; 100 mg BID): 1
- QT prolongation observed ([2]; 100 mg cohort, patient with history of R BBB): patient population. Other QT prolongations observed: Grade 1 prolonged
- subjects who experienced differentiation syndrome (SAE) ([2]; 300 mg QD): 1
- DLT (dose limiting toxicity) observed ([2]; 800 mg QD): One DLT (dose limiting toxicity) of grade 3 QT prolongation
- subjects who experienced tongue edema and QT prolongation (SAE) ([2]; 800 mg QD): 1
- QT prolongation observed ([2]; 800 mg cohort): 300 mg cohort; and Grade 3 prolonged QT (DLT) in 800 mg cohort.
- At least 1 adverse event ([2]; All grades): 14 (82) n (%)
- Cough ([2]; All grades): 4 (24) n (%)
- Diarrhea ([2]; All grades): 3 (18) n (%)
- Dyspnea ([2]; All grades): 5 (29) n (%)
- Electrocardiogram QT prolonged ([2]; All grades): 3 (18) n (%)
- Fatigue ([2]; All grades): 5 (29) n (%)
- Febrile neutropenia ([2]; All grades): 3 (18) n (%)
- Nausea ([2]; All grades): 5 (29) n (%)
- Pyrexia ([2]; All grades): 4 (24) n (%)
- Vomiting ([2]; All grades): 4 (24) n (%)
- Death ≤28 days after Compound 1 Discontinuation ([2]; All patients (N = 17)): 6
- Discontinued due to AE (intracranial hemorrhage) ([2]; All patients (N = 17)): 1** n
- Discontinued due to PD (progressive disease) ([2]; All patients (N = 17)): 4 n
- Death ≤28 days after Compound 1 Discontinuation ([2]; Cohort 1 100 mg BID (n = 4)): 3
- Discontinued due to AE (intracranial hemorrhage) ([2]; Cohort 1 100 mg BID (n = 4)): 1** n
- Discontinued due to PD (progressive disease) ([2]; Cohort 1 100 mg BID (n = 4)): 2 n
- Death ≤28 days after Compound 1 Discontinuation ([2]; Cohort 2 300 mg QD (n = 4)): 2
- Discontinued due to PD (progressive disease) ([2]; Cohort 2 300 mg QD (n = 4)): 1 n
- Death ≤28 days after Compound 1 Discontinuation ([2]; Cohort 3 500 mg QD (n = 4)): 1
- Discontinued due to PD (progressive disease) ([2]; Cohort 3 500 mg QD (n = 4)): 1 n
- At least 1 adverse event ([2]; Grade ≥3): 11 (65) n (%)
- Cough ([2]; Grade ≥3): 0 n (%)
- Diarrhea ([2]; Grade ≥3): 0 n (%)
- Dyspnea ([2]; Grade ≥3): 2 (12) n (%)
- Electrocardiogram QT prolonged ([2]; Grade ≥3): 1 (6) n (%)
- Fatigue ([2]; Grade ≥3): 1 (6) n (%)
- Febrile neutropenia ([2]; Grade ≥3): 3 (18) n (%)
- Nausea ([2]; Grade ≥3): 1 (6) n (%)
- Pyrexia ([2]; Grade ≥3): 1 (6) n (%)
- Vomiting ([2]; Grade ≥3): 0 n (%)
- hypotension ([2]; Grade ≥3): Notable grade ≥3 AEs include: hypotension 2 (12%), mental status n (%)
- mental status changes ([2]; Grade ≥3): changes 2 (12%), neutropenia 2 (12%). AEs appear typical for this n (%)
- neutropenia ([2]; Grade ≥3): changes 2 (12%), neutropenia 2 (12%). AEs appear typical for this n (%)
- subjects who experienced serious adverse events ([2]; all cohorts): Eight
- intracellular 2HG [3]: reduced intracellular 2HG
- 2HG in xenograft [4]: Reduction in 2HG was observed
